Measured values: US20240124524A1, “Agonist of Tacr2” (University of Copenhagen, priority 2019, published 2024)
Read-outs that look alike come from different tables or passages of the source.

Columns and labels:
[1] = system: diet induced obese (DIO) mice; test: Insulin tolerance test after Neurokinin A treatment; assay type: in vivo, mice (male C57Bl/6); details: vs control mice
Experimental: (§1) Oxygen consumption was measured every 5 minutes using the PhenoMaster. Data is representative of all days and show means±SEM of n=6. (b) Weight was measured every day throughout the experimental period. […] (c) Insulin tolerance test was performed in 3h fasted mice the day after treatment, and mice received 1 UI per kg lean body mass insulin intraperitoneal. […] (d) The three major adipose tissues were harvested weighed upon termination of experiment.
Mice were fasted for 3 hours prior to intra peritoneal insulin tolerance test (IPITT). Insulin (Actrapid, Novo Nordisk, DK) was dosed at 1 IU per kg lean body mass measured prior to treatment. Blood glucose was determined using glucometer from Roche. Lower blood glucose levels indicate greater insulin sensitivity.

primary brown adipocytes = test: Oxygen consumption rate, Seahorse XF-96 Flux Analyzer; assay type: cell-based; details: 72 hours NKA treatment; primary brown adipocytes not transfected with Tacr2; FIG. 3b
Experimental: Primary brown pre-adipocytes were isolated from intrascapular brown fat pads by collagenase type 1 (Worthington, NJ, USA) digestion on horizontal shaking water bath at 37° C. for 50 minutes with vortexing every 10 minutes. Collagenase was diluted in KRB with free fatty acid free BSA (Sigma-Aldrich, Denmark) in a ratio of 1:10. The enzymatic reaction was stopped by addition of growth media, and cell suspension was pelleted, resuspended in growth media before straining through a 40 μm nylon mesh (VWR, Denmark) to avoid tissue clumps. Pre-adipocytes were expanded in DMEM (Gibco, Denmark) supplemented with 10% fetal bovine serum (Invitrogen, Denmark) and 1% penicillin and streptomycin (Lonza, Denmark) until confluency. The day after reach of confluency, primary brown pre-adipocytes were differentiated using a cocktail consisting of insulin (0.5 mg/mL), rosiglitazone (1 mM), dexamethasone (100 μM), IBMX (50 mM) and T3 (1 μM) for two days, thereafter cells were maintained in growth media containing insulin and T3 throughout the experimental period. Maintenance media was changed every second day. Cells were grown at 37° C. with 10% CO2.
(§2) Oxygen consumption was measured using the Seahorse XF-96 Flux Analyzer (Seahorse Bioscience, Denmark). […] All readings were performed over a two minutes period and mixing was performed for three minutes. […]

[2] = system: diet induced obese (DIO) mice; test: Neurokinin A treatment of diet induced obese mice; assay type: in vivo, mice (male C57Bl/6)
Experimental: as §1
All animal experiments were performed according to Danish animal legislation, with ad libitum access to food and water and 12 hour light-dark cycle. Male C57Bl/6 mice were purchased from Janvier (Denmark) at four weeks of age and acclimatized for one week prior to experimentation. For high fat diet studies, male C57Bl/6 mice were housed at room temperature and fed a 60% high fat diet (Research diets, D12492, Denmark) for 18 weeks. After being fed this diet, the mice were highly obese, typically having a body weight in the range of 42 to 45 g. These mice may also be referred to as diet induced obese (DIO) mice. Mice were randomized according to their weight and body composition measured by MRI scan (EchoMRI, TX, USA) before single-housing for at least one week prior treatment. Oxygen consumption and […] (RER) were measured using PhenoMaster (TSE-Systems, Germany). Food consumption was manually assessed every second day.
For treatment, NKA was diluted in Gelofusine® (B. Braun, DK) prior to subcutaneous injection. Mice were treated twice daily for 9 days.

mTacr2 [3] = molecular target: T1, mTacr2 (Mus musculus, UniProt P30549); test: IP3 assay with 0.2% or 2% BSA (BSA binding); assay type: cell-based; details: for EC50: printed as log EC50 with negative sign
T1 construct: host or cells: HEK293
T1 sequence (P30549 1-384): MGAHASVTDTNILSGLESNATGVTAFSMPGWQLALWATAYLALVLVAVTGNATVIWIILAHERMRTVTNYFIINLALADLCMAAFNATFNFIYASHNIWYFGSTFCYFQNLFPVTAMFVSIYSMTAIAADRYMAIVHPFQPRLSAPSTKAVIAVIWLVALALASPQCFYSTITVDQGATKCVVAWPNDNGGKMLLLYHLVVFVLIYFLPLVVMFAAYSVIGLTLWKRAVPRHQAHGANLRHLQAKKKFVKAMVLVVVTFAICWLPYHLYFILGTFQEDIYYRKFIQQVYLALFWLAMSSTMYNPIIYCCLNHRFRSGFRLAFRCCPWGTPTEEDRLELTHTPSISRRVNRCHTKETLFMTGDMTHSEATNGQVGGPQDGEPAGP
Experimental: (§3) HEK293 cells were transiently transfected with plasmid (pcDNA3.1, Genscript, NJ, USA) encoding human or mouse Tacr1-3 using Lipofectamine 2000 (Thermo Fisher, Denmark). After six hours of transfection, cells were loaded with 5 μCi myo-[3H]inositol (Perkin Elmer, Denmark) in full maintenance and cultured overnight. […] After treatment, cells were extracted with 10 mM formic acid and cell membranes were captured using poly-L-lysine coated SPA beads (Perkin Elmer, Denmark), and analyzed on Top Counter (Perkin Elmer, Denmark).
(§4) Data was analyzed using GraphPad Prism 7 (GraphPad, CA, USA),using 4 parametric logistic curve fitting. The data analysis included calculation of the top value, the bottom value, the hill slope as well as the log EC50.

mouse Tacr2 = molecular target: T2, mouse Tacr2 (Mus musculus, UniProt P30549); test: IP3 assay in primary brown adipocytes transfected with Tacr2; assay type: cell-based; details: 24 hours NKA treatment; Tacr2 over-expressing primary brown adipocytes; FIG. 3a
T2 construct: host or cells: primary brown adipocytes
T2 sequence (P30549 1-384): T1 sequence (P30549 1-384)
Experimental: Primary brown pre-adipocytes were isolated from intrascapular brown fat pads by collagenase type 1 (Worthington, NJ, USA) digestion on horizontal shaking water bath at 37° C. for 50 minutes with vortexing every 10 minutes. Collagenase was diluted in KRB with free fatty acid free BSA (Sigma-Aldrich, Denmark) in a ratio of 1:10. The enzymatic reaction was stopped by addition of growth media, and cell suspension was pelleted, resuspended in growth media before straining through a 40 μm nylon mesh (VWR, Denmark) to avoid tissue clumps. Pre-adipocytes were expanded in DMEM (Gibco, Denmark) supplemented with 10% fetal bovine serum (Invitrogen, Denmark) and 1% penicillin and streptomycin (Lonza, Denmark) until confluency. […]
Primary brown adipocytes were loaded with 5 μCi myo-[3H]inositol (Perkin Elmer, Denmark) in full maintenance media at the day after electroporation, and incubated overnight. […] After treatment, cells were extracted with 10 mM formic acid and cell membranes were captured using poly-L-lysine coated SPA beads (Perkin Elmer, Denmark), and analyzed on Top Counter (Perkin Elmer, Denmark).
as §2

mTacr2 [4] = molecular target: T1, mTacr2; test: IP3 assay in transfected HEK293 cells; assay type: cell-based
Experimental: as §3, §4

Tacr2 [5] = molecular target: T3, Tacr2 (Homo sapiens, UniProt P21452); details: Sp Hs; cited from earlier work
T3 sequence (P21452 1-398): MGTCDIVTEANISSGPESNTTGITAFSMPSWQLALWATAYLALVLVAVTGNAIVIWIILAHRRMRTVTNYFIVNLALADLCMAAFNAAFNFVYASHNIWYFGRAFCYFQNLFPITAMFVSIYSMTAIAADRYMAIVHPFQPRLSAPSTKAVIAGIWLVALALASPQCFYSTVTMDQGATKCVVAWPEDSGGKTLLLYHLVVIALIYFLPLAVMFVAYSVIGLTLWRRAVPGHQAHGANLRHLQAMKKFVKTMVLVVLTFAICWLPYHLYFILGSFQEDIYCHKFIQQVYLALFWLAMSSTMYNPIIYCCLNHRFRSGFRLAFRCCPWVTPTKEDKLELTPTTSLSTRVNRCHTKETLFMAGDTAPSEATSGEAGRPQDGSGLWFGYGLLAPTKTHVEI

human brown adipose = details: cited from earlier work
Tacr2 [6] = details: Sp Cp; cited from earlier work
Tacr2 [7] = molecular target: T4, Tacr2 (Rattus norvegicus, UniProt P16610); details: Sp Rn; cited from earlier work
T4 sequence (P16610 1-390): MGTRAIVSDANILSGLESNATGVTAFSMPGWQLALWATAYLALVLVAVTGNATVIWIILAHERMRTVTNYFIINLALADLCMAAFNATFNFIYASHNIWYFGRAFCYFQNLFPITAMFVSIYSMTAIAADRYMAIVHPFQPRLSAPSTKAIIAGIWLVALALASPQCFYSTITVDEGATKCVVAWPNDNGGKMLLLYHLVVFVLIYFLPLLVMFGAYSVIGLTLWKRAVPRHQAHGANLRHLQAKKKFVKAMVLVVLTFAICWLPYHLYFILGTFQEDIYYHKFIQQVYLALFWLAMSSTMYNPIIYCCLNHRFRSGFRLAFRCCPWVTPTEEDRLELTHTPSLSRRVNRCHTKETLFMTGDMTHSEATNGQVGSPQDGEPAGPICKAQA

Tacr2 [8] = molecular target: T4, Tacr2; details: Sp Rn; cited from earlier work; remark: listed apart in the source

**Q.** Which “blood glucose level after insulin treatment (ITT)” value ([1]; 3 h fasted, 1 IU insulin per kg lean body mass i.p., day after treatment, FIG. 4c) does the source give for CSCC[C@H](NC(=O)[C@H](CC(C)C)NC(=O)CNC(=O)[C@@H](NC(=O)[C@H](Cc1ccccc1)NC(=O)[C@H](CO)NC(=O)[C@H](CC(=O)O)NC(=O)[C@@H](NC(=O)[C@H](CCCCN)NC(=O)[C@@H](N)Cc1cnc[nH]1)[C@@H](C)O)C(C)C)C(N)=O [NKA, Neurokinin A] here?
**A.** significant lower blood glucose level after insulin treatment

**Q.** And the “insulin sensitivity (ITT)” value [1]?
**A.** higher insulin sensitivity

**Q.** What about the “return of blood glucose to basal levels after Cmin (ITT)” value [1] of the same compound?
**A.** return to basal levels at a slower rate

**Q.** What about the “oxygen consumption rate (OCR)” value (primary brown adipocytes) of the same compound?
**A.** increases oxygen consumption rate (OCR)

**Q.** And the metabolic parameters ([2]; 1 mg/kg NKA s.c. twice daily for 9 days)?
**A.** improved metabolic parameters

**Q.** And the “calorie burning (oxygen consumption)” value ([2]; 1 mg/kg NKA s.c. twice daily for 9 days, FIG. 4a)?
**A.** increased calorie burning

**Q.** What about the body weight ([2]; 1 mg/kg NKA s.c. twice daily for 9 days, FIG. 4b) of the same compound?
**A.** significant reduction in body weight

**Q.** What about the “desensitization to NKA” value ([2]; 9 consecutive days of treatment, FIG. 4a) of the same compound?
**A.** not accompanied by desensitization to NKA

**Q.** What about the adipose tissue weight ([2]; tissues harvested upon termination, FIG. 4d) of the same compound?
**A.** reduction of white adipose tissue and not brown fat

**Q.** And the EC50 (mTacr2 [3]; LogEC50, mTacr2, 0.2% BSA)?
**A.** 3.54 nM

**Q.** What about the EC50 (mTacr2 [3]; LogEC50, mTacr2, 2% BSA) of the same compound?
**A.** 12.3 nM

**Q.** What about the BSA binding affinity (mTacr2 [3]; from Tacr2 activation at 0.2% vs 2% BSA) of the same compound?
**A.** low BSA binding affinity

**Q.** What about the Hill-Slope (mTacr2 [3]; mTacr2, 0.2% BSA) of the same compound?
**A.** 1.082

**Q.** What about the Top (mTacr2 [3]; mTacr2, 0.2% BSA) of the same compound?
**A.** 1788

**Q.** And the Bottom (mTacr2 [3]; mTacr2, 2% BSA)?
**A.** 111.3

**Q.** And the Hill-Slope (mTacr2 [3]; mTacr2, 2% BSA)?
**A.** 0.8378

**Q.** And the Top (mTacr2 [3]; mTacr2, 2% BSA)?
**A.** 1719

**Q.** And the IP3 levels (mouse Tacr2)?
**A.** increases IP3 levels

**Q.** What about the EC50 (mTacr2 [4]) of the same compound?
**A.** 8.09 nM

**Q.** Which Affinity (Tacr2 [5]) does the source give for “hemokinin 1 (RSRTRQFYGLM; Hemokinin; UniProt Q99N14 56-66, looked up) [mammalian tachykinin (Mouse)]” here?
**A.** 6.3 pKi

**Q.** With Nc1nc(CC(=O)Nc2ccc(CCNC[C@H](O)c3ccccc3)cc2)cs1 [Mirabegron] as the compound, how does the “activation of human brown adipose” value (human brown adipose; proof-of-concept studies) read?
**A.** activate human brown adipose

**Q.** And the “blood pressure and heart rate” value (human brown adipose; side effects)?
**A.** elevated blood pressure and heart rate

**Q.** For “neuropeptide K (DADSSIEKQVALLKALYGHGQISHKRHKTDSFVGLM; Neuropeptide K; UniProt P20366 72-107, looked up) [natural agonist of Tacr2 (Human, Rat)]”, which Affinity (Tacr2 [6]) is on record?
**A.** 8.8 pEC50

**Q.** For “Neurokinin A (3-10) [GR64349, Neurokinin A (3-10) [Lys3, Gly8-(R)-γ-Lactam-Leu9]]”, which Affinity (Tacr2 [7]) is on record?
**A.** 8.4 pEC50

**Q.** Which Affinity (Tacr2 [6]) does the source give for neuropeptide γ here?
**A.** 9.5 pEC50

**Q.** With “[Lys5,Me-Leu9, Nle10]NKA-(4-10) [[Lys5,Me-Leu9,Nle10]NKA-(4-10), DKFVGXJ, X = Me-Leu; J = Nle]” as the compound, how does the Affinity (Tacr2 [8]) read?
**A.** 8.8-9.4 pIC50

**Q.** With [βAla8]neurokinin A-(4-10) as the compound, how does the Affinity (Tacr2 [5]) read?
**A.** 6.0 pKd

**Q.** Which Affinity (Tacr2 [5]) does the source give for CSCC[C@H](NC(=O)[C@H](CC(C)C)NC(=O)CNC(=O)[C@@H](NC(=O)[C@H](Cc1ccccc1)NC(=O)[C@H](Cc1ccccc1)NC(=O)[C@H](CC(=O)O)NC(=O)[C@H](Cc1c[nH]cn1)NC(=O)[C@H](CCSC)NC(=O)[C@@H](N)CC(=O)O)C(C)C)C(N)=O [NKB, neurokinin B] here?
**A.** 5.0-7.7 pKi
